Measurements reported in ChEMBL document CHEMBL1137599, “Discovery of uracil-based histone deacetylase inhibitors able to reduce acquired antifungal resistance and trailing growth in Candida albicans” (Bioorg Med Chem Lett, 2007).
≈ marks a conversion by molar mass, not a printed value.

Key:
Candida albicans [1] = test: Effect of compound on Candida albicans sensitivity to Fluconazole: Minimum inhibitory concentration required to inhibit the growth of 50% of isolates after 24h.; assay type: functional
Candida albicans [2] = test: Effect of compound on Candida albicans sensitivity to Fluconazole: Minimum inhibitory concentration required to inhibit the growth of 90% of isolates after 24h.; assay type: functional
Candida albicans [3] = test: microbe, parasite or virus in culture; assay type: functional; details: 48 h
Description: Effect of compound on Candida albicans sensitivity to Fluconazole: Minimum inhibitory concentration required to inhibit the growth of 50% of isolates after 48h.

Candida albicans [4] = test: Effect of compound on Candida albicans sensitivity to Fluconazole: Minimum inhibitory concentration required to inhibit the growth of 90% of isolates after 48h.; assay type: functional
Histone deacetylase 1 = Histone deacetylase 1 (Mus musculus, UniProt O09106); test: Inhibition of mouse HDAC1 (mean)
Chain of Histone deacetylase 1 (O09106 whole entry): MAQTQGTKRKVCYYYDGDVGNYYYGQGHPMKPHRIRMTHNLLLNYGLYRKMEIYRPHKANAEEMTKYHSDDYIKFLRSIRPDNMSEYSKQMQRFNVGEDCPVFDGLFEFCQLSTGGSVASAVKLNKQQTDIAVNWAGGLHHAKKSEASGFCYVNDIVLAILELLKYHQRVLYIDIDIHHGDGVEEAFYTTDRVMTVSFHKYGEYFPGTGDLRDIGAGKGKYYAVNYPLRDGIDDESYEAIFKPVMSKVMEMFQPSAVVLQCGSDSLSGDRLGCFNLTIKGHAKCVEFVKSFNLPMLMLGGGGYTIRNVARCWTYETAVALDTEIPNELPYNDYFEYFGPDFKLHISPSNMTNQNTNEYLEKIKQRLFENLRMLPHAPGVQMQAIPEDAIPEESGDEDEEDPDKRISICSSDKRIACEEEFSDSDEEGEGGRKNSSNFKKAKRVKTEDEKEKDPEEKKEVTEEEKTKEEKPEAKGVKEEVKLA

Histone deacetylase HD2 = biological target: T1, Histone deacetylase HD2 (Zea mays, UniProt Q94F81); test: Inhibition of maize HD2 (mean)
T1 sequence (Q94F81 whole entry): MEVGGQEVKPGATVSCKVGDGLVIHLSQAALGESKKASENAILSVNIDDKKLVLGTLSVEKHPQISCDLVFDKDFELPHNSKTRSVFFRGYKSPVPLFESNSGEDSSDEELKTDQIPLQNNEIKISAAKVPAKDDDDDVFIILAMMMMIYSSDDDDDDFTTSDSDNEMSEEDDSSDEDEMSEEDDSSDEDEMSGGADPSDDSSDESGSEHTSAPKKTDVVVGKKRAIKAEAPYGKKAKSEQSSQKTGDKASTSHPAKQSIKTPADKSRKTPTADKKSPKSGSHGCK

Histone deacetylase HD1B = Histone deacetylase HD1B (Zea mays, UniProt Q9ZTP8); test: Inhibition of maize HD1-B (mean)
Chain of Histone deacetylase HD1B (Q9ZTP8 whole entry): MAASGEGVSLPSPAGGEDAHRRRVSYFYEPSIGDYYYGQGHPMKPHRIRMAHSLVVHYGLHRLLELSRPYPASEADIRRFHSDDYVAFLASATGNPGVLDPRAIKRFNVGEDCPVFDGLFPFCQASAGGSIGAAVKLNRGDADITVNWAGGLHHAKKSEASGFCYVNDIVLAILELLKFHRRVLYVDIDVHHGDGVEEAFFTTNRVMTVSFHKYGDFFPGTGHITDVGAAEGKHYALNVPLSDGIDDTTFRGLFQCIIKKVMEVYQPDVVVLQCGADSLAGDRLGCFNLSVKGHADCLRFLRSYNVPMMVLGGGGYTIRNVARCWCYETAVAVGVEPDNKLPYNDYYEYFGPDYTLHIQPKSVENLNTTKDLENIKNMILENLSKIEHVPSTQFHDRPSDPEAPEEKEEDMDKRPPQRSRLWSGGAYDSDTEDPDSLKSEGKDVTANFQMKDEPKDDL

[5] = biological target: Histone deacetylase HD1-A (Zea mays); test: Inhibition of maize HD1-A (mean)

| SMILES | MIC50 (Candida albicans [1]) | MIC90 (Candida albicans [2]) | MIC50 (Candida albicans [3]) | MIC90 (Candida albicans [4]) | IC50 (Histone deacetylase 1) | IC50 (Histone deacetylase HD2) | IC50 (Histone deacetylase HD1B) | IC50 [5] |
| --- | --- | --- | --- | --- | --- | --- | --- | --- |
| OC(Cn1cncn1)(Cn1cncn1)c1ccc(F)cc1F [FLUCONAZOLE] | 1.45 µg/mL (≈ 4.73 µM) | 3.6 µg/mL (≈ 11.8 µM) | 2.5 µg/mL (≈ 8.16 µM) | 11 µg/mL (≈ 35.9 µM) | – | – | – | – |
| O=C(CCCCSc1nc(-c2ccc(Cl)cc2)cc(=O)[nH]1)NO | 0.5 µg/mL (≈ 1.41 µM) | 2 µg/mL (≈ 5.65 µM) | 1 µg/mL (≈ 2.83 µM) | 16 µg/mL (≈ 45.2 µM) | 0.018 µg/mL (≈ 0.0509 µM) | 0.006 µg/mL (≈ 0.017 µM) | 0.004 µg/mL (≈ 0.0113 µM) | 0.001 µg/mL (≈ 0.00283 µM) |
| O=C(CCCCCCC(=O)Nc1ccccc1)NO [VORINOSTAT] | – | – | – | – | – | 0.013 µg/mL (≈ 0.0492 µM) | 0.007 µg/mL (≈ 0.0265 µM) | – |
| O=C(CCCCCSc1nc(Cc2ccccc2)cc(=O)[nH]1)NO | 0.5 µg/mL (≈ 1.44 µM) | 4 µg/mL (≈ 11.5 µM) | 0.625 µg/mL (≈ 1.8 µM) | 12 µg/mL (≈ 34.5 µM) | – | – | – | – |
| O=C(CCCCSc1nc(-c2ccccc2)cc(=O)[nH]1)NO | 0.5 µg/mL (≈ 1.57 µM) | 4 µg/mL (≈ 12.5 µM) | 0.5 µg/mL (≈ 1.57 µM) | 12 µg/mL (≈ 37.6 µM) | – | – | – | – |
| O=C(CCCCSc1nc(-c2cccc(Cl)c2)cc(=O)[nH]1)NO | 0.44 µg/mL (≈ 1.24 µM) | 3.42 µg/mL (≈ 9.67 µM) | 1 µg/mL (≈ 2.83 µM) | 8 µg/mL (≈ 22.6 µM) | 0.013 µg/mL (≈ 0.0367 µM) | 0.006 µg/mL (≈ 0.017 µM) | 0.004 µg/mL (≈ 0.0113 µM) | – |
